Like-named read-outs stand apart in the source and are kept apart here.
How the values were obtained:
[1] = molecular target: neuraminidase of A/Uruguay/716/07 (H3N2) (Influenza A virus, UniProt I6VF55); format: biochemical; settings: read-out: Inhibition of Neuraminidase, IC50
[2] = molecular target: neuraminidase of A/Brisbane/59/07 (H1N1) (Influenza A virus, UniProt D5F1R0); assay: biochemical; format: biochemical
[3] = molecular target: neuraminidase of A/Solomon Islands/3/06 (H1N1) (Influenza A virus, UniProt B4URD9); format: biochemical; settings: read-out: Inhibition of Neuraminidase, IC50
[4] = molecular target: neuraminidase of B/Malaysia/5206/04 (Influenza B virus, UniProt Q38G90); assay: Neuraminidase inhibition, fluorogenic MUNANA substrate, purified intact virions; format: biochemical; settings: read-out: Inhibition of Neuraminidase, IC50
N2 NAs = settings: read-out: inhibition (IC50) of N2 NAs; range over N2 NAs; ref [28]; cited from earlier work
type B NAs = settings: read-out: inhibition (IC50) of type B NAs; range over type B NAs; ref [28]; cited from earlier work

Row | Compound | improved N1 NA activity compared to the parent 3 [2] | IC50 [2] [µM] | other results
1 | 4-(2,2-Bis(hydroxymethyl)-3-((3-pentyloxy)methyl)-5-oxopyrrolidin-1-yl)benzoic Acid [Compound 10c] | 80–100 fold |  | IC50 [1]: 0.5 ± 0.1 µM; IC50 ([2]; read-out: Inhibition of Neuraminidase, IC50): 1 ± 0.21 µM; IC50 [3]: 0.8 ± 0.07 µM; IC50 [4]: 30 ± 1.4 µM
2 | CCC(CC)O[C@@H]1C=C(C(=O)O)C[C@H](N)[C@H]1NC(C)=O [Compound 1c, oseltamivir carboxylate] |  |  | IC50 (N2 NAs): 0.00068 to 0.00178 µM; IC50 (type B NAs): 0.005 to 0.0243 µM
3 | CC(C)OCc1cc(C(=O)O)ccc1N1C(=O)CCC1(CO)CO [Compound 10a, 4-(2,2-Bis(hydroxymethyl)-5-oxopyrrolidin-1-yl)-3-(isopropoxymethyl)benzoic Acid] |  | > 10000 | 
4 | CCC(C)OCc1cc(C(=O)O)ccc1N1C(=O)CCC1(CO)CO (centres unmarked) [Compound 10b, 4-(2,2-Bis(hydroxymethyl)-5-oxopyrrolidin-1-yl)-3-(2-butoxymethyl)benzoic Acid] |  | 16 ± 2.1 | 
5 | CCC(=Cc1cc(C(=O)O)ccc1N1C(=O)CCC1(CO)CO)CC [Compound 13b, 4-(2,2-Bis (hydroxymethyl)-5-oxopyrrolidin-1-yl)-3-(2-ethylbut-1-enyl)benzoic Acid] | 30–40 fold | 2.4 ± 0.9 | 
6 | CC(C)Cc1cc(C(=O)O)ccc1N1C(=O)CCC1(CO)CO [Compound 13c, 4-(2,2-Bis (hydroxymethyl)-5-oxopyrrolidin-1-yl)-3-isobutylbenzoic Acid] |  | 70 ± 7.8 | 
7 | CCC(CC)Cc1cc(C(=O)O)ccc1N1C(=O)CCC1(CO)CO [Compound 14b, 4-(2,2-Bis (hydroxymethyl)-5-oxopyrrolidin-1-yl)-3-(2-ethylbutyl)benzoic Acid] | 30–40 fold | 1.6 ± 0.6 | 

Reference: article PMC3401542 (Bioorganic & medicinal chemistry, 2012)
